Results from patent US10314816B2, “Antimicrobial compounds, compositions and methods of use thereof” (Wisconsin Alumni Research Foundation, priority 2012, dated 2019).
Read-outs that look alike come from different tables or passages of the source.

Key:
C. crescentus cells = experiment: Measurement of ΔΨ using DiOC2, fluorescence microscopy; type: cell-based, Caulobacter crescentus; conditions: 20 minutes of treatment, p<0.001
Protocol: For experiments with C. crescentus cells, the cells were prepared by diluting the overnight culture 10-fold into fresh PYE medium. The diluted culture was grown for 1 hour at 200 rpm and 30° C. The cells were treated with compounds for 10 minutes at room temperature, DiOC2 dye was added to a final concentration of 30 μM, and incubated for 10 minutes. After labeling, small aliquots (1-2 μl) of the suspensions of cells were transferred onto 1% agarose pads for fluorescence microscopy. A Nikon Eclipse TE2000E inverted microscope with an Andor DU-895 EMCCD camera, a Perfect Focus system, and an encoded z-stage were used for phase contrast and epifluorescence microscopy. For detecting green and red fluorescence of the dye, the following wavelengths (λex/λem): 484/520 nm and 555/620 nm, respectively, were used. Acquired images were analyzed using the MATLAB-based script MicrobeTracker. […] The segmentation was applied to the fluorescence images to calculate the fluorescence intensity for individual cells. A separate MATLAB script was written to process the results from MicrobeTracker, in which the cell-area normalized ratio of red to green fluorescence for each cell was calculated.
ΔΨ was measured for two model bacteria, C. crescentus (Gram-negative) and Bacillus subtilis (Gram-positive), in the absence and presence of DCAP. […] DiOC2 emits green fluorescence (λ=530 nm) in its monomeric form. […]

P. aeruginosa K1115 = experiment: MIC of bacterial growth, macrodilution (Table 2); type: cell-based; conditions: Pseudomonas aeruginosa
Protocol: (§1) Bacterial strains and growth conditions. Luria-Bertani (LB) media (10 g/L tryptone, 10 g/L NaCl, 5 g/L yeast extract, pH 7.2) was used to grow B. subtilis 168, S. aureus FRI100, and P. aeruginosa K1115 strains. For P. aeruginosa PAO1 and K1119 strains and two E. coli BW25113 strains, M8 minimal media (241 mg/L MgSO4, 4 mg/L glucose, 5 mg/L casamino acids, 12.8 g/L Na2HPO4.7H2O, 3 g/L KH2PO4, and 0.5 g/L NaCl) was used. PYE media (2 g/L peptone, 1 g/L yeast extract, 0.8 mM MgSO4, and 0.5 mM CaCl2) was used for culturing C. crescentus cells at 30° C. All cultures were grown at 37° C., except for C. crescentus (30° C.). All cultures were grown while shaking at 200 rpm.
(§2) Determination of the minimum inhibitory concentration (MIC) of bacterial growth. The MIC of various organisms in liquid media was determined using the macrodilution method according to the NCCLS guidelines. For the starting inoculum, cultures were diluted to contain approximately 5×10^5 cells/mL in growth media. To create a two-fold dilution series for the macrodilution technique, each compound was added to the first culture tube (4 mL total volume) at the highest concentration. 2 mL of this culture was diluted into an equal volume of inoculated media (a two-fold dilution). The final volume for each culture was 2 mL.

P. aeruginosa K1119 = experiment: MIC of bacterial growth, macrodilution (Table 2); type: cell-based; conditions: Pseudomonas aeruginosa
Protocol: as §1, §2

P. aeruginosa PAO1 = experiment: MIC of bacterial growth, macrodilution (Table 2); type: cell-based; conditions: Pseudomonas aeruginosa
Protocol: as §1, §2

E. aerogenes = experiment: MIC of bacterial growth (Table 2); type: cell-based, Enterobacter aerogenes; conditions: Klebsiella aerogenes; E. aerogenes clinical isolate (Table 2)
Protocol: as §2

E. coli BW25113 ΔtolC = experiment: MIC of DCAP analogs, LB media, macrodilution (CLSI); type: cell-based; conditions: Escherichia coli
Protocol: Luria-Bertani (LB) media (10 g/L tryptone, 10 g/L NaCl, 5 g/L yeast extract, pH 7.0) was used to grow all the strains represented in Tables 5 and 6. All the cultures were grown at 37° C. All the E. coli strains were grown while shaking at 200 rpm and the clinical pathogens were statically incubated. […]

Acinetobacter baumannii = experiment: MIC of DCAP analogs, LB media, microdilution (CLSI); type: cell-based; conditions: microdilution (Table 6)
Protocol: (§3) Luria-Bertani (LB) media (10 g/L tryptone, 10 g/L NaCl, 5 g/L yeast extract, pH 7.0) was used to grow all the strains represented in Tables 5 and 6. All the cultures were grown at 37° C. All the E. coli strains were grown while shaking at 200 rpm and the clinical pathogens were statically incubated.
(§4) For clinical pathogenic organisms including S. typhimurium, V. cholera, S. boydii, K pneumonia, E. aerogenes, A. baumannii, E. tarda, and M. morganii strains, liquid LB media in 96-well microplates (100 μL/well) and the microdilution method from the CLSI guidelines were used.

Edwardsiella tarda = experiment: as above; type: cell-based; conditions: microdilution (Table 6)
Protocol: as §3, §4

Enterobacter aerogenes = experiment: as above; type: cell-based; conditions: Klebsiella aerogenes, microdilution (Table 6)
Protocol: as §3, §4

Klebsiella pneumonia = experiment: as above; type: cell-based; conditions: Klebsiella pneumoniae, microdilution (Table 6)
Protocol: as §3, §4

Morganella morganii = experiment: as above; type: cell-based; conditions: microdilution (Table 6)
Protocol: as §3, §4

Salmonella typhimurium = experiment: as above; type: cell-based; conditions: Salmonella enterica, microdilution (Table 6)
Protocol: as §3, §4

Shigella boydii = experiment: as above; type: cell-based; conditions: microdilution (Table 6)
Protocol: as §3, §4

Vibrio cholera = experiment: as above; type: cell-based; conditions: Vibrio cholerae
Protocol: as §3, §4

[1] = system: C. crescentus strain (MT97); experiment: In vivo screen with C. crescentus strain that expresses MipZ-YFP; type: cell-based, Caulobacter crescentus; conditions: 20 μM in agarose pad; data not shown
Protocol: In vivo screen with a Caulobacter crescentus strain that expresses MipZ-YFP. Hits from in vitro screens were tested for activity in vivo. A C. crescentus strain (MT97) that expresses mipZ-yfp from the native mipZ promoter was used. An overnight culture of MT97 was diluted to an absorbance (λ=600 nm) of ˜0.1; the diluted culture was grown further for at least 1 hour prior to compound treatment. Compounds were mixed with a solution of 1% agarose in M2G media to achieve a final concentration of 20 μM. The cells (1 μL per pad) were transferred on top of the compound-containing agarose pad, and the cell morphology and localization of MipZ-YFP were imaged for a period of 24 hours using epifluorescence microscopy. In between microscopic observations, the inoculated pads were incubated at 30° C. to promote growth.
Hits were further screened for antibacterial activity using a Caulobacter crecentus strain that expresses MipZ-YFP as described in Materials and Methods.

N#CC(C#N)=NNc1cccc(Cl)c1 [CCCP, carbonyl cyanide m-chlorophenyl hydrazone]
ΔΨ (λ576/λ530 of DiOC2) (C. crescentus cells): significant decrease in λ576/λ530

OCC(CO)(CO)NCC(O)Cn1c2ccc(Cl)cc2c2cc(Cl)ccc21 (centres unmarked) [DCAP, 2-((3-(3,6-dichloro-9H-carbazol-9-yl)-2-hydroxypropyl)amino)-2-(hydroxymethyl)propane-1,3-diol]
MIC (P. aeruginosa K1115): 80 µM | MIC (P. aeruginosa K1119): 160 µM | MIC (P. aeruginosa PAO1): 160 µM | MIC (E. aerogenes): 200 µM | MIC (E. coli BW25113 ΔtolC; BW25113): 20 µM | MIC (E. coli BW25113 ΔtolC; BW25113, read-out: MIC (ΔtolC E. coli)): 20 µM | MIC (Acinetobacter baumannii): 200 µM | MIC (Edwardsiella tarda): 100 µM | MIC (Enterobacter aerogenes): 200 µM | MIC (Klebsiella pneumonia): 200 µM | MIC (Morganella morganii): 200 µM | MIC (Salmonella typhimurium): 100 µM | MIC (Shigella boydii): 100 µM | MIC (Vibrio cholera): 50 µM | ΔΨ (λ576/λ530 of DiOC2) (C. crescentus cells): significant decrease in λ576/λ530 | Antibacterial activity in the MipZ-YFP assay [1]: confirmed as having antibacterial activity
